From ChEMBL document CHEMBL1201862, “PubChem BioAssay data set” (2004) come the findings set out here.

Test systems include OVCAR-4; HOP-92; MOLT-4; SR; COLO 205; SNB-19; UO-31; HCT-116; ACHN; OVCAR-5; A549; K562; UACC-62; NCI-H23; DU-145; MDA-N; PC-3; T47D; KM12.
Test in all cases: NCI anticancer screen, dose series, 48 h

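Five compound concentrations were applied to cells in 96-well plates for 48 hours; endpoints were derived by simple linear interpolation of the resulting dose-response curve. GI50: concentration for 50% inhibition of growth.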 Activity calls are given as the source filed them. Rule as the data show it: active = GI50 up to about 1.1 µM and inactive = higher.

Turning to `COC1(OC)C2(Cl)C(Cl)=C(Cl)C1(Cl)C1C2C2CC1(C(=O)O)c1ccccc12` (centres undefined), the GI50 in the experiment with OVCAR-4 was 15 µM (inactive); with HOP-92 it was 35.6 µM (inactive); in the experiment with MOLT-4, 13.6 µM (inactive); in the experiment on SR, 9.55 µM (inactive); in the experiment with COLO 205 it was 23.9 µM (inactive); in the experiment on SNB-19 it was 67.1 µM (inactive). The GI50 was 21.9 µM (inactive) in the experiment on UO-31; 17.5 µM (inactive) in the experiment on HCT-116; 35.7 µM (inactive) with ACHN; > 10 µM (inactive) in the experiment on OVCAR-5; 28.1 µM (inactive) in the experiment on A549; 15.9 µM (inactive) with K562. Besides, the GI50 with UACC-62 is 16.5 µM (inactive); in the experiment on NCI-H23 it was 14.3 µM (inactive).
For the molecule `Cc1c(Cl)c(=O)oc2cc(OCC(O)COC(C)C)ccc12` (centres undefined), the GI50 in the experiment on OVCAR-4 was 38.9 µM (inactive); with HOP-92, 35 µM (inactive); in the experiment with MOLT-4, 27.5 µM (inactive); with SR, 31.9 µM (inactive); with COLO 205, 14 µM (inactive); in the experiment with DU-145 it was 99.5 µM (inactive). For the same molecule, the GI50 is > 100 µM (inactive) in the experiment on SNB-19; 40.3 µM (inactive) in the experiment with UO-31; 43 µM (inactive) in the experiment on HCT-116; 48.1 µM (inactive) in the experiment with MDA-N; 43.5 µM (inactive) with PC-3; 44.1 µM (inactive) with ACHN. The GI50 in the experiment with OVCAR-5 is > 100 µM (inactive); in the experiment with T47D, 69.7 µM (inactive); in the experiment with A549 it was 42.2 µM (inactive); in the experiment with KM12 it was 50.5 µM (inactive); with K562, 23.3 µM (inactive); in the experiment with UACC-62, 74.6 µM (inactive). In addition, the GI50 in the experiment on NCI-H23 was > 100 µM (inactive).
For `c1cc2c(cc1[C@@H]1OC[C@@H]3[C@H]1CO[C@H]3c1ccc3c(c1)OCO3)OCO2`, the GI50 in the experiment with OVCAR-4 was > 100 µM (inactive); in the experiment on HOP-92, 69.3 µM (inactive); in the experiment on MOLT-4, 28.4 µM (inactive); with COLO 205 it was > 100 µM (inactive); in the experiment on DU-145, > 100 µM (inactive); in the experiment with SNB-19 it was > 100 µM (inactive). Further, the GI50 with UO-31 is 65.8 µM (inactive); in the experiment with HCT-116 it was 26.9 µM (inactive); with MDA-N, 80.9 µM (inactive); with PC-3, 51.4 µM (inactive); in the experiment with ACHN it was > 100 µM (inactive); in the experiment with OVCAR-5 it was > 100 µM (inactive). Also, the GI50 is 46.3 µM (inactive) with T47D; 62.2 µM (inactive) in the experiment on A549; 23.1 µM (inactive) in the experiment with KM12; 46.8 µM (inactive) in the experiment with K562; > 100 µM (inactive) in the experiment with UACC-62; 65.9 µM (inactive) in the experiment on NCI-H23.
Regarding `CC(C)CC(=O)NS(=O)(=O)c1ccccc1`, the GI50 with OVCAR-4, with HOP-92, in the experiment on MOLT-4, in the experiment on SR, with COLO 205 and in the experiment on SNB-19 was > 100 µM (inactive) throughout. The GI50 with UO-31, with HCT-116, in the experiment with ACHN, with OVCAR-5, in the experiment on A549 and in the experiment with KM12 was > 100 µM (inactive) each time. The GI50 in the experiment on K562, in the experiment with UACC-62 and with NCI-H23 was > 100 µM (inactive) in each case.
For the molecule `CC(C)(C)C1=CC(=N/N=c2\scc(-c3ccccc3)n2-c2ccccc2)C=C(C(C)(C)C)C1=O`, the GI50 with OVCAR-4, in the experiment with HOP-92, in the experiment on MOLT-4, in the experiment on SR, in the experiment with COLO 205 and in the experiment with SNB-19 was > 100 µM (inactive) throughout. Also, the GI50 in the experiment on UO-31, in the experiment on HCT-116, in the experiment on ACHN, in the experiment on OVCAR-5, in the experiment on A549 and in the experiment on KM12 was > 100 µM (inactive) each time. For the same molecule, the GI50 with K562, in the experiment with UACC-62 and in the experiment with NCI-H23 was > 100 µM (inactive) throughout.
`Cc1ccc(N(C(=O)CC(=O)N2N=C(c3ccccc3)C(/N=N/c3ccc([N+](=O)[O-])cc3)C2=O)C(=O)c2ccc(Cl)cc2)cc1` (centres undefined): the GI50 with OVCAR-4 was 36.1 µM (inactive); in the experiment on HOP-92, 22.5 µM (inactive); in the experiment with MOLT-4 it was > 42.1 µM (inactive); with SR, 1.66 µM (inactive); with COLO 205, 5.31 µM (inactive); in the experiment with SNB-19, 17.3 µM (inactive). The GI50 in the experiment with UO-31 is 16.3 µM (inactive); in the experiment on HCT-116, 8.59 µM (inactive); with ACHN, 28.4 µM (inactive); with OVCAR-5, 20.5 µM (inactive); in the experiment with A549, 22.7 µM (inactive); in the experiment on KM12, 20.4 µM (inactive). Besides, the GI50 in the experiment on K562 was 24.7 µM (inactive); in the experiment on UACC-62 it was 30.3 µM (inactive); in the experiment with NCI-H23, 5.98 µM (inactive).
Take `CC(C)[C@]12O[C@H]1[C@@H]1O[C@@]13[C@@]1(C)CCC4=C(COC4=O)[C@@H]1C[C@@H]1O[C@@]13C2=O` [TRIPTONIDE]: the GI50 with OVCAR-4 is < 0.01 µM (active); in the experiment on HOP-92 it was 0.0237 µM (active); in the experiment with MOLT-4, < 0.01 µM (active); with SR it was < 0.01 µM (active); in the experiment on COLO 205, < 0.0113 µM (active); in the experiment on DU-145, 0.0235 µM (active). The GI50 in the experiment with UO-31 is 0.0123 µM (active); in the experiment on HCT-116, < 0.01 µM (active); in the experiment on MDA-N, < 0.0113 µM (active); in the experiment with PC-3 it was 0.0227 µM (active); in the experiment with ACHN it was < 0.01 µM (active); in the experiment on OVCAR-5, 0.0317 µM (active). Besides, the GI50 was 0.0238 µM (active) in the experiment with T47D; 0.0384 µM (active) in the experiment with A549; 0.824 µM (active) with KM12; 0.0128 µM (active) in the experiment on K562; 0.0122 µM (active) in the experiment with UACC-62; < 0.01 µM (active) in the experiment on NCI-H23.
Turning to `CC1=C/C(=N\N(C)C)C(C(O)(C(F)(F)F)C(F)(F)F)C(C)(C)C1` (centres undefined), the GI50 is > 100 µM (inactive) with OVCAR-4; 0.169 µM (active) in the experiment with HOP-92; 97.1 µM (inactive) with MOLT-4; > 100 µM (inactive) with SR; > 100 µM (inactive) in the experiment with COLO 205; > 100 µM (inactive) in the experiment on DU-145. Also, the GI50 in the experiment on SNB-19 is > 100 µM (inactive); in the experiment on UO-31, > 100 µM (inactive); in the experiment with HCT-116, > 100 µM (inactive); with MDA-N it was > 100 µM (inactive); with PC-3, 73.6 µM (inactive); in the experiment with ACHN it was > 100 µM (inactive). Besides, the GI50 in the experiment with OVCAR-5, in the experiment with T47D, in the experiment on A549, with KM12, in the experiment with K562 and in the experiment on UACC-62 was > 100 µM (inactive) in each case. The GI50 with NCI-H23 is 69.7 µM (inactive).
As for `O=C1CSC(=O)/C1=C\NNc1nc2ccccc2o1`, the GI50 with OVCAR-4 was 38.3 µM (inactive); with HOP-92, 23.3 µM (inactive); in the experiment on MOLT-4 it was 21 µM (inactive); with SR, 24.5 µM (inactive); in the experiment on COLO 205, 27 µM (inactive); with DU-145, 47.5 µM (inactive). For the same molecule, the GI50 is 19.6 µM (inactive) with SNB-19; 17 µM (inactive) in the experiment with HCT-116; 52.1 µM (inactive) in the experiment with MDA-N; 21.8 µM (inactive) in the experiment on PC-3; 32.6 µM (inactive) in the experiment on ACHN; 60.7 µM (inactive) with OVCAR-5. Further, the GI50 in the experiment with T47D was 6.34 µM (inactive); in the experiment with A549 it was 27.7 µM (inactive); with KM12 it was 67.9 µM (inactive); in the experiment with UACC-62 it was 18 µM (inactive); in the experiment on NCI-H23, 24.5 µM (inactive).
Turning to `COc1ccc(/C=N/Nc2nc(-c3cc4oc(=O)n(C)c4cc3Cl)cs2)cc1OC`, the GI50 was 11.2 µM (inactive) in the experiment on OVCAR-4; 25.4 µM (inactive) with HOP-92; 9.75 µM (inactive) in the experiment on MOLT-4; 77.4 µM (inactive) in the experiment with SR; 81.8 µM (inactive) in the experiment with COLO 205; 49.2 µM (inactive) in the experiment with SNB-19. For the same molecule, the GI50 is 13.6 µM (inactive) in the experiment on UO-31; 9.04 µM (inactive) in the experiment on HCT-116; 7.66 µM (inactive) with ACHN; > 100 µM (inactive) in the experiment on OVCAR-5; 4.35 µM (inactive) in the experiment on A549; 18.8 µM (inactive) with KM12. Moreover, the results for the GI50 in the experiment on K562, in the experiment with UACC-62 and in the experiment with NCI-H23 were 4.89 µM (inactive), 16.8 µM (inactive) and 6.15 µM (inactive), respectively.
On to `O=C(NNc1ccccc1)/C(=C/c1ccc2c(c1)OCO2)NC(=O)c1ccccc1`, for which the GI50 in the experiment with OVCAR-4 was 66.2 µM (inactive); in the experiment on HOP-92, > 100 µM (inactive); in the experiment on MOLT-4, 55 µM (inactive); with SR, 32.2 µM (inactive); in the experiment with COLO 205, 40.1 µM (inactive); with SNB-19 it was > 100 µM (inactive). For the same molecule, the GI50 in the experiment on UO-31, in the experiment on HCT-116, with ACHN, in the experiment with OVCAR-5, in the experiment with A549 and in the experiment on KM12 was > 100 µM (inactive) in each case. In addition, the GI50 in the experiment on K562, in the experiment with UACC-62 and in the experiment on NCI-H23 was > 100 µM (inactive) throughout.
As to `CC(C)(C)OC(=O)CC(NC(=O)OC(C)(C)C)C(=O)N[C@@H]1CCCC[C@H]1C(=O)OCc1ccccc1` (some centres undefined), the GI50 is 45.2 µM (inactive) in the experiment with OVCAR-4; 53.2 µM (inactive) with HOP-92; 17 µM (inactive) with MOLT-4; 29.2 µM (inactive) in the experiment on SR; 19.3 µM (inactive) with COLO 205; 32.5 µM (inactive) in the experiment with DU-145. Also, the GI50 in the experiment with SNB-19 was 33.3 µM (inactive); with UO-31, 24.2 µM (inactive); with HCT-116, 17.5 µM (inactive); with MDA-N, 32.1 µM (inactive); in the experiment on PC-3, 21.4 µM (inactive); in the experiment with ACHN it was 32.7 µM (inactive). The GI50 is 26.2 µM (inactive) in the experiment on OVCAR-5; 22.3 µM (inactive) in the experiment on T47D; 25.2 µM (inactive) in the experiment with A549; 30.1 µM (inactive) in the experiment on KM12; 18.4 µM (inactive) in the experiment on K562; 16.2 µM (inactive) in the experiment on UACC-62. Moreover, the GI50 in the experiment on NCI-H23 is 29.3 µM (inactive).
